Laboratory results reported in US20240390362A1, “METHODS OF TREATING ERYTHROPOIETIC PROTOPORPHYRIA, X-LINKED PROTOPORPHYRIA, OR CONGENITAL ERYTHROPOIETIC PORPHYRIA WITH A SOLID FORM OF BITOPERTIN” (Disc Medicine, Inc., priority 2021, published 2024).

Legend:
Assay type in all cases: cell-based
K562 clone-9 cells = assay: Cell viability by Vi-CELL XR Complete System in EPP K562 model; conditions: 96 hours incubation
Procedure: 900 μL of K562 clone-9 cells at 2×10^5 cells/mL in IMDM media with 10% FBS and 1% PS were plated into a 24-well plate. After 24-hour incubation, 100 μL of compound in DMSO/media was added in different concentration. The final concentration of DMSO was 0.1%. The compound was incubated for 96 hours at 37° C. Cell viability and cell count were measured by Vi-CELL XR Complete System. Finally, the effect of the compound on PPIX level was determined by flow cytometry.

[1] = system: human cord blood-CD34+ cells; assay: CD34+ cells transduced with FECH shRNA lentivirus, differentiated to erythroid cells; flow cytometry of PPIX and surface markers; conditions: 100 nM, 9 days differentiation
Procedure: To investigate the effects of GlyT1 inhibitors in human hematopoietic stem cells with an EPP phenotype, lentiviral vectors expressing shRNA of FECH were constructed (Table 4) and transduced at 25 MOI into human cord blood-CD34+ cells purchased from Stemexpress.
Transduced CD34+ cells were differentiated in the presence of Bitopertin (100 nM) or DMSO control into erythroid cells for 9 days in StemSpan SFEM II media supplemented with StemSpan Erythroid Expansion Supplement. The erythroid cell antigen profile was analyzed using cytofluorimetric strategy with the following surface markers: CD71 (PE Mouse Anti-Human CD71, BD Biosciences), glycophoryin A (APC Mouse Anti-Human CD235a, BD Biosciences).

clone 1-9 cells = assay: LC/MS/MS of 5-ALA, PPIX and heme levels in the EPP K562 cellular model

C[C@H](Oc1ccc(S(C)(=O)=O)cc1C(=O)N1CCN(c2ncc(C(F)(F)F)cc2F)CC1)C(F)(F)F [Bitopertin, [4-(3-fluoro-5-trifluoromethylpyridin-2-yl)piperazin-1-yl][5-methylsulfonyl-2-[((S)-2,2,2-trifluoro-1-methylethyl)oxy]phenyl]methanone]
effect on cell viability (K562 clone-9 cells): no negative effects
effect on erythroid cell surface markers (CD71, glycophorin A) [1]: no negative effects
effect on Heme formation (clone 1-9 cells): minimal effect
